From article PMC9332802, “Structure–Activity Relationship of New Chimeric Analogs of Mastoparan from the Wasp Venom Paravespula lewisii” (International Journal of Molecular Sciences, 2022)
Converted amounts (≈) assume the structure as drawn. “And” between values parts separate entries of the source, which are not always exact repeats. Identical values can stand only once. Ends that are not written are not given here.

Assays:
[1] = Circular dichroism spectroscopy, relative α-helix fraction; type: physicochemical; details: CD, peptide 0.15 mg/mL, 25 °C, three scans averaged; for Relative α-helix fraction (fH), 0.1 M Tris + 50 mM SDS: 0.1 M Tris buffer pH 7.01 + 50 mM SDS, from mean residue ellipticity at 222 nm; for Relative α-helix fraction (fH), 50% TFE / Relative α-helix fraction (fH), water: from mean residue ellipticity at 222 nm (Rohl and Baldwin)
Protocol: Circular dichroism spectroscopy was applied to evaluate the conformational changes of peptides induced by membrane-mimetic environments. The secondary structures of MP and some of its MP analogs (Table 4) were determined in water, 50% 2,2,2-trifluoroethanol (TFE) and 0.1 M Tris buffer with the addition of 50 mM SDS. The relative α-helix fraction (fH) values presented in Table 4, calculated from the values of mean residue ellipticity at 222 nm, reflect the ability of peptides to adopt helical structure in the tested environments.
Circular dichroism (CD) spectra of peptides were recorded on a Jasco J-815 spectropolarimeter (Jasco Int. Co., Ltd., Tokyo, Japan). The CD spectra were acquired for peptides in a concentration of 0.15 mg/mL in water, 50% 2,2,2-trifluoroethanol (TFE) or 0.1 M tris(hydroxymethyl)aminomethane (Tris) buffer (pH 7.01) with the addition of 50 mM SDS (sodium dodecylsulphate) in 0.1 cm path length cuvettes. Measurements were taken at 25 °C in a spectral range of 193–260 nm with a bandwidth of 1 nm and response of 1 s. The spectra were averaged after three scans. Ellipticity was measured in mdeg units and converted to mean residue ellipticity (Θ). The relative helix content (fH) was calculated from the mean residue ellipticity values at 222 nm using the method proposed by Rohl and Baldwin [50] and described previously. Helical wheel projections (Figure 3) were made with HeliQuest https://heliquest.ipmc.cnrs.fr/ (accessed on 1 June 2022).

[2] = system: Escherichia coli NCTC 8196; experiment: microbe, parasite or virus in culture; type: cell-based; details: broth microdilution (CLSI), Mueller–Hinton broth, 37 °C, peptide 0.125 to […], no visible growth, triplicate
Protocol: (§1) Antimicrobial activity of peptides was examined against three reference strains: Staphylococcus aureus NCTC 4163, Escherichia coli NCTC 8196 and Pseudomonas aeruginosae NCTC 6749 dedicated for the determination of antibacterial activity. The bacterial strains were stored in glycerol stock (Sigma-Aldrich, St. Louis, MO, USA) at −80 °C. Before testing, the strains were cultured aerobically in Tryptic Soy Agar (BD DIFCO, Franklin Lakes, NJ, USA) at 37 °C for 20 h. The susceptibility of microorganisms to the peptides was determined by the broth microdilution assay according to the procedures outlined by CLSI [49]. […] In order to prepare the bacterial suspension, an overnight culture of bacteria in Tryptic Soy Broth (BD DIFCO, Franklin Lakes, NJ, USA) was diluted in sterile saline to a final concentration of approximately 10^7 CFU/mL of bacteria. Aliquots (5 µL) of bacterial suspension were added to each peptide solution. The sterility control (containing the tested peptide in broth) and the growth control (containing the reference strain in broth without the tested peptide) were also set up. The plates were incubated at 37 °C under aerobic conditions. The results are expressed as the minimal inhibitory concentration (MIC) of the compounds in question. The MIC was defined as the lowest concentration at which no visible growth of bacteria (no turbidity) was observed. The assay was performed in triplicate.

[3] = system: Staphylococcus aureus NCTC 4163; experiment: microbe, parasite or virus in culture; type: cell-based; details: broth microdilution (CLSI), Mueller–Hinton broth, 37 °C, peptide 0.125 to […], no visible growth, triplicate
Protocol: as §1

[4] = system: Pseudomonas aeruginosae NCTC 6749; experiment: microbe, parasite or virus in culture; type: cell-based; details: broth microdilution (CLSI), Mueller–Hinton broth, 37 °C, peptide 0.125 to […], no visible growth, triplicate
Protocol: as §1

HCT116 cells = experiment: MTT cytotoxicity assay; type: cell-based, human; details: for Effect on cell viability up to 10 µM: 24 h, peptide up to 10 µM; for LD50 (peptide concentration sufficient to kill 50% of the peptide-treated cells): 24 h incubation, 0.05–50 µM, from regression curves of cell viability, triplicate
Protocol: (§2) The cytotoxicity of the selected MP analogs, MP-RIP and RIP-MP, was determined against two human cell lines. The viability of HT29 and HCT116 cells incubated with various concentrations of MP-RIP and RIP-MP was assessed by the MTT assay (Figure 4). […] Moreover, based on the regression curves of cell viability, lethal doses of MP analogs sufficient to kill 50% of the peptide-treated cells (LD50) were calculated. […] The viability of the HT29 cells indicates relatively low cytotoxicity of both analogs at a concentration corresponding to the MIC value against S. aureus. In the case of HCT116 cells, the above relationships were less evident.
(§3) Human cell lines HT29 (ATCC cat. # HTB-38) and HCT116 (ATCC cat. # CCL-247) were cultured in McCoy (HT29) or Dulbecco’s Modified Eagle’s (DMEM) medium (HCT116), supplemented with 10% fetal bovine serum (FBS), penicillin (100 U/mL) and streptomycin (100 µg/mL). Cultures were conducted at 37 °C in humidified atmosphere of 5% CO2. Cells were cultured for 24 h before initiation of the experiments. The cell viability was determined by the 3-(4, 5-dimethylthazol-2-yl)-2, 5-diphenyl tetrazolium bromide (MTT) assay. Briefly, HT29 or HCT116 cells were seeded in 96-well plates to a density of 10^5 cells/well in 0.2 mL of above-specified culture media. After 24 h, the following concentrations of peptides were added to wells: 0.05, 0.1, 0.5, 1, 5, 10, 25, 50 µM. As a negative control, cells were treated with 0.9% NaCl. After 24 h of incubation (5% CO2, 37 °C), 15 µL MTT solution was added into each well to reach the final concentration of […]. After further incubation for 2 h (5% CO2, 37 °C) the cells were centrifuged for 3 min at 4 °C and the medium was removed. Formazan crystals present in mitochondria of metabolically active cells were dissolved with 100 μL of dimethylsulfoxide (DMSO), and the dye concentration was determined at 570 nm wavelength. Cell viability was expressed as a percentage (mean value ± SEM) of those cells treated with 0.9% NaCl as negative control. Lethal doses, which correspond to peptide concentrations sufficient to kill 50% of the peptide-treated cells (LD50), were determined with GraphPad Prism 7.0 software (GraphPad Software Inc., La Jolla, CA, USA). The assay was performed in triplicate.

HT29 cells = experiment: MTT cytotoxicity assay; type: cell-based, human; details: for Effect on cell viability up to 10 µM: 24 h, peptide up to 10 µM; for LD50 (peptide concentration sufficient to kill 50% of the peptide-treated cells): 24 h incubation, 0.05–50 µM, from regression curves of cell viability, triplicate
Protocol: as §2, §3

[5] = cited from earlier work
From the text: However, comparing their cytotoxic properties with other MP analogs known from the previous literature reports appears to be difficult due to the different cell lines used in cytotoxicity assays.

Row | Compound | Relative α-helix fraction (fH), 0.1 M Tris + 50 mM SDS [1] | Relative α-helix fraction (fH), 50% TFE [1] | Relative α-helix fraction (fH), water [1] | MIC E. coli [2] [µg/mL] | MIC S. aureus [3] [µg/mL] | MIC P. aeruginosae [4] [µg/mL] | Effect on cell viability up to 10 µM (HCT116 cells) | LD50 (peptide concentration sufficient to kill 50% of the peptide-treated cells) (HCT116 cells) [µM] | Effect on cell viability up to 10 µM (HT29 cells) | LD50 (peptide concentration sufficient to kill 50% of the peptide-treated cells) (HT29 cells) [µM] | Fold lower cytotoxicity than MP [5] [fold]
1 | CC[C@H](C)[C@H](NC(=O)[C@H](CCCCN)NC(=O)CNC(=O)[C@H](CC(C)C)NC(=O)[C@H](CC(C)C)NC(=O)[C@H](Cc1ccc(O)cc1)NC(=O)CNC(=O)[C@H](C)N)C(=O)N[C@@H](CC(N)=O)C(=O)N[C@@H](CC(C)C)C(=O)N[C@@H](CCCCN)C(=O)N[C@@H](C)C(=O)N[C@@H](CC(C)C)C(=O)N[C@@H](C)C(=O)N[C@@H](C)C(=O)N[C@@H](CC(C)C)C(=O)N[C@@H](C)C(=O)N[C@@H](CCCCN)C(=O)N[C@@H](CCCCN)C(=O)N[C@H](C(=O)N[C@@H](CC(C)C)C(=O)N[C@@H](Cc1ccc(O)cc1)C(=O)N[C@@H](CO)C(=O)N1CCC[C@H]1C(=O)N[C@@H](Cc1c[nH]c2ccccc12)C(=O)N[C@H](C(=O)N[C@@H](CC(N)=O)C(=O)N[C@@H](Cc1ccccc1)C(N)=O)[C@@H](C)O)[C@@H](C)CC [TP10-RIP] | 0.25 | 0.27 | 0.08 | >256 | 128 (≈ 41.6 µM) | >256 | – | – | – | – | –
2 | CC[C@H](C)[C@H](NC(=O)[C@H](CCCCN)NC(=O)CNC(=O)[C@H](CC(C)C)NC(=O)[C@H](CC(C)C)NC(=O)[C@H](Cc1ccc(O)cc1)NC(=O)CNC(=O)[C@H](C)N)C(=O)N[C@@H](CC(N)=O)C(=O)N[C@@H](CC(C)C)C(=O)N[C@@H](CCCCN)C(=O)N[C@@H](C)C(=O)N[C@@H](CC(C)C)C(=O)N[C@@H](C)C(=O)N[C@@H](C)C(=O)N[C@@H](CC(C)C)C(=O)N[C@@H](C)C(=O)N[C@@H](CCCCN)C(=O)N[C@@H](CCCCN)C(=O)N[C@H](C(=O)N[C@@H](CC(C)C)C(=O)N[C@@H](Cc1ccc(O)cc1)C(=O)N[C@@H](CCCCN)C(=O)N1CCC[C@H]1C(=O)N[C@H](C(=O)N[C@H](C(=O)N[C@@H](CC(N)=O)C(=O)N[C@@H](Cc1ccccc1)C(N)=O)[C@@H](C)O)[C@@H](C)CC)[C@@H](C)CC [TP10-[Lys^2, Ile^4] RIP] | 0.31 | 0.29 | 0.08 | >256 | 128 (≈ 42 µM) | >256 | – | – | – | – | –
3 | CC[C@H](C)[C@H](NC(=O)[C@H](CCCCN)NC(=O)[C@H](CCCCN)NC(=O)[C@H](C)NC(=O)[C@H](CC(C)C)NC(=O)[C@H](C)NC(=O)[C@H](C)NC(=O)[C@H](CC(C)C)NC(=O)[C@H](C)NC(=O)[C@H](CCCCN)NC(=O)[C@H](CC(C)C)NC(=O)[C@H](CC(N)=O)NC(=O)[C@@H](NC(=O)[C@H](CCCCNC(=O)Cn1c(-c2ccccn2)nc2ccccc21)NC(=O)CNC(=O)[C@H](CC(C)C)NC(=O)[C@H](CC(C)C)NC(=O)[C@H](Cc1ccc(O)cc1)NC(=O)CNC(=O)[C@H](C)N)[C@@H](C)CC)C(=O)N[C@@H](CC(C)C)C(N)=O [[Lys^7 (PBnzAc)] TP10] | 0.32 | 0.51 | 0.14–0.19 and 0.15 | >256 | >256 | >256 | – | – | – | – | –
4 | INLKALAALAKKILLIKKALAALAKLNI-NH2 [MP-retroMP] | 0.17 | 0.23–0.24 and 0.24 | 0.04 | >256 | >256 | >256 | – | – | – | – | –
5 | INLKALAALAKKILYSPWTNF-NH2 [MP-RIP] | – | – | – | – | – | >256 | did not substantially affect the viability | 13.2 | did not substantially affect the viability | 38.0 | –
6 | LIKKALAALAKLNI-NH2 [retroMP, reference compound] | 0.16 | – | 0.19 | 256 | >256 | 256 | – | – | – | – | 3.5
7 | YSPWTNFINLKALAALAKKIL-NH2 [RIP-MP] | – | – | – | – | – | >256 | did not substantially affect the viability | 17.0 | did not substantially affect the viability | 30.2 | –
